According to publication PMC6979384, “Characterization of the plant homeodomain (PHD) reader family for their histone tail interactions” (Epigenetics & Chromatin, 2020):
Where no end group is shown, it is not given here. [ ]: non-standard residue; d: D form. pS = N[C@@H](COP(=O)(O)O)C(=O)O

Assays:
Test in all cases: Histone peptide microarray
Type in all cases: binding, human
AIRE (PP) = conditions: AIRE (PP)
How it was run: (§1)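 Binding read as mean relative signal from 4 replicates; microarray held 293 synthetic histone peptides with single or combinatorial PTMs. Each GST-tagged PHD reader was applied at 0.5 μM using the optimized Petell protocol.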

BAZ2B = conditions: BAZ2B
How it was run: as §1

BPTF (PB) = conditions: BPTF (PB)
How it was run: as §1

CHD4 (PPCC) = conditions: CHD4 (PPCC)
How it was run: as §1

CHD5 (PCC) = conditions: CHD5 (PCC)
How it was run: as §1

CHD5 (PPCC) = conditions: CHD5 (PPCC)
How it was run: as §1

DIDO1 = test system: DIDO1
How it was run: as §1

DPF2 (PPC2W2) = conditions: DPF2 (PPC2W2)
How it was run: as §1

ING1 = test system: ING1
How it was run: as §1

ING2 = test system: ING2
How it was run: as §1

ING3 = test system: ING3
How it was run: as §1

ING4 = test system: ING4
How it was run: as §1

ING5 = test system: ING5
How it was run: as §1

KDM4C (TTP) = conditions: KDM4C (TTP)
How it was run: as §1

KDM5A (1) = conditions: KDM5A (1)
How it was run: as §1

KDM5A (3) = conditions: KDM5A (3)
How it was run: as §1

KDM5B (1) = conditions: KDM5B (1)
How it was run: as §1

KDM5B (3) = conditions: KDM5B (3)
How it was run: as §1

KDM7A = conditions: KDM7A
How it was run: as §1

MLL5 = test system: MLL5
How it was run: as §1

MORC3 (CW) = conditions: MORC3 (CW)
How it was run: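 GST-tagged PHD readers, 0.5 μM, probed on a microarray of 293 synthetic histone peptides carrying single or combinatorial PTMs (optimized Petell protocol). Signals are averaged over 4 replicates and expressed as relative binding.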

PHF13 = test system: PHF13
How it was run: as §1

PHF21A = conditions: PHF21A
How it was run: as §1

PHF23 = test system: PHF23
How it was run: as §1

PHF2 = test system: PHF2
How it was run: as §1

PHF8 = test system: PHF8
How it was run: as §1

PHRF1 (RP) = conditions: PHRF1 (RP)
How it was run: as §1

RAG2 = test system: RAG2
How it was run: as §1

SP140L = conditions: SP140L
How it was run: as §1

TAF3 = test system: TAF3
How it was run: as §1

TRIM66 (PB) = conditions: TRIM66 (PB)
How it was run: as §1

[1] = sheet "Array Heatmap", each array performed twice, total n = 4
[2] = GST-tagged, arrays performed twice, n of 4

## H3K4me3R8me2a: H3 1-20
AIRE (PP); [1]
  Array Heatmap value (peptide array signal): 0.3453
BAZ2B; [1]
  Array Heatmap value (peptide array signal): 0.3334
BPTF (PB); [1]
  Array Heatmap value (peptide array signal): 0.2864
CHD4 (PPCC); [1]
  Array Heatmap value (peptide array signal): 0.4923
CHD5 (PCC); [1]
  Array Heatmap value (peptide array signal): 0.6343
CHD5 (PPCC); [1]
  Array Heatmap value (peptide array signal): 0.4208
DIDO1; DIDO1, sheet "Array Heatmap", each array performed twice, total n = 4
  Array Heatmap value (peptide array signal): 0.6362
DPF2 (PPC2W2); [1]
  Array Heatmap value (peptide array signal): 0.6137
ING1; ING1, sheet "Array Heatmap", each array performed twice, total n = 4
  Array Heatmap value (peptide array signal): 0.5333
ING2; ING2, sheet "Array Heatmap", each array performed twice, total n = 4
  Array Heatmap value (peptide array signal): 0.6387
ING3; ING3, sheet "Array Heatmap", each array performed twice, total n = 4
  Array Heatmap value (peptide array signal): 0.4064
ING4; ING4, sheet "Array Heatmap", each array performed twice, total n = 4
  Array Heatmap value (peptide array signal): 0.3653
ING5; ING5, sheet "Array Heatmap", each array performed twice, total n = 4
  Array Heatmap value (peptide array signal): 0.2674
KDM4C (TTP); [1]
  Array Heatmap value (peptide array signal): 0.39
KDM5A (1); [1]
  Array Heatmap value (peptide array signal): 0.3616
KDM5A (3); [1]
  Array Heatmap value (peptide array signal): 0.5067
KDM5B (1); [1]
  Array Heatmap value (peptide array signal): 0.5478
KDM5B (3); [1]
  Array Heatmap value (peptide array signal): 0.4037
KDM7A; [1]
  Array Heatmap value (peptide array signal): 0.3319
MLL5; MLL5, sheet "Array Heatmap", each array performed twice, total n = 4
  Array Heatmap value (peptide array signal): 0.5116
MORC3 (CW); [1]
  Array Heatmap value (peptide array signal): 0.4123
PHF13; PHF13, sheet "Array Heatmap", each array performed twice, total n = 4
  Array Heatmap value (peptide array signal): 0.5067
PHF21A; [1]
  Array Heatmap value (peptide array signal): 0.4017
PHF23; PHF23, sheet "Array Heatmap", each array performed twice, total n = 4
  Array Heatmap value (peptide array signal): 0.5109
PHF2; PHF2, sheet "Array Heatmap", each array performed twice, total n = 4
  Array Heatmap value (peptide array signal): 0.5013
PHF8; PHF8, sheet "Array Heatmap", each array performed twice, total n = 4
  Array Heatmap value (peptide array signal): 0.377
PHRF1 (RP); [1]
  Array Heatmap value (peptide array signal): 0.4161
RAG2; RAG2, sheet "Array Heatmap", each array performed twice, total n = 4
  Array Heatmap value (peptide array signal): 0.2561
SP140L; [1]
  Array Heatmap value (peptide array signal): 0.3243
TAF3; TAF3, sheet "Array Heatmap", each array performed twice, total n = 4
  Array Heatmap value (peptide array signal): 0.2483
TRIM66 (PB); [1]
  Array Heatmap value (peptide array signal): 0.5377

## H2AX (S139p): H2AX 132-142 (GKKATQA[pS]QEY; UniProt P16104 133-143, looked up, fragment)
AIRE (PP); [2]
  Array Heatmap value (peptide array binding signal): 0.5219
BAZ2B; [2]
  Array Heatmap value (peptide array binding signal): 0.5073
BPTF (PB); [2]
  Array Heatmap value (peptide array binding signal): 0.3554
CHD4 (PPCC); [2]
  Array Heatmap value (peptide array binding signal): 0.5526
CHD5 (PCC); [2]
  Array Heatmap value (peptide array binding signal): 0.7872
CHD5 (PPCC); [2]
  Array Heatmap value (peptide array binding signal): 0.5731
DIDO1; DIDO1, GST-tagged, arrays performed twice, n of 4
  Array Heatmap value (peptide array binding signal): 0.6489
DPF2 (PPC2W2); [2]
  Array Heatmap value (peptide array binding signal): 0.653
ING1; ING1, GST-tagged, arrays performed twice, n of 4
  Array Heatmap value (peptide array binding signal): 0.495
ING2; ING2, GST-tagged, arrays performed twice, n of 4
  Array Heatmap value (peptide array binding signal): 0.5973
ING3; ING3, GST-tagged, arrays performed twice, n of 4
  Array Heatmap value (peptide array binding signal): 0.4704
ING4; ING4, GST-tagged, arrays performed twice, n of 4
  Array Heatmap value (peptide array binding signal): 0.4783
ING5; ING5, GST-tagged, arrays performed twice, n of 4
  Array Heatmap value (peptide array binding signal): 0.3847
KDM4C (TTP); [2]
  Array Heatmap value (peptide array binding signal): 0.5256
KDM5A (1); [2]
  Array Heatmap value (peptide array binding signal): 0.5265
KDM5A (3); [2]
  Array Heatmap value (peptide array binding signal): 0.4478
KDM5B (1); [2]
  Array Heatmap value (peptide array binding signal): 0.697
KDM5B (3); [2]
  Array Heatmap value (peptide array binding signal): 0.5358
KDM7A; [2]
  Array Heatmap value (peptide array binding signal): 0.4369
MLL5; MLL5, GST-tagged, arrays performed twice, n of 4
  Array Heatmap value (peptide array binding signal): 0.5137
MORC3 (CW); [2]
  Array Heatmap value (peptide array binding signal): 0.3885
PHF13; PHF13, GST-tagged, arrays performed twice, n of 4
  Array Heatmap value (peptide array binding signal): 0.6185
PHF21A; [2]
  Array Heatmap value (peptide array binding signal): 0.4613
PHF23; PHF23, GST-tagged, arrays performed twice, n of 4
  Array Heatmap value (peptide array binding signal): 0.5395
PHF2; PHF2, GST-tagged, arrays performed twice, n of 4
  Array Heatmap value (peptide array binding signal): 0.4467
PHF8; PHF8, GST-tagged, arrays performed twice, n of 4
  Array Heatmap value (peptide array binding signal): 0.3729
PHRF1 (RP); [2]
  Array Heatmap value (peptide array binding signal): 0.411
RAG2; RAG2, GST-tagged, arrays performed twice, n of 4
  Array Heatmap value (peptide array binding signal): 0.2586
SP140L; [2]
  Array Heatmap value (peptide array binding signal): 0.363
TAF3; TAF3, GST-tagged, arrays performed twice, n of 4
  Array Heatmap value (peptide array binding signal): 0.2793
TRIM66 (PB); [2]
  Array Heatmap value (peptide array binding signal): 0.5363
